Data on one compound can be found in US8642612B2, “Nicotinic desensitizers and methods of selecting, testing, and using them” (Potomac Pharmaceuticals, Inc., priority 2006, dated 2014).

Assay [1] concerns the target T1, human α4β2 nAChRs (Homo sapiens, UniProt P17787+P43681).
T1 construct: expressed in transfected cells; the efflux text says only stably transfected cells
It is filed as cell-based. Particulars: for Agonist Activity α4β2: stimulation of 86Rb+ efflux. Here is the method:
(§1) In brief, cells were plated into 24-well plates coated with poly-D-lysine. […] The cells were then incubated in growth medium (0.5 ml/well) containing ^86Rb^+ (2 μCi/ml) for 4 hour at 37° C. The loading mixture was then aspirated, and the cells were washed four times with 1 ml buffer (15 mM HEPES, 140 mM NaCl, 2 mM KCl, 1 mM MgSO4, 1.8 mM CaCl2, 11 mM Glucose, pH 7.4). One ml of buffer with or without compounds to be tested was then added to each well. After incubation for 2 min, the assay buffer was collected for measurements of ^86Rb^+ released from the cells. Cells were then lysed by adding 1 ml of 100 mM NaOH to each well, and the lysate was collected for determination of the amount of ^86Rb^+ that was in the cells at the end of the efflux assay. Radioactivity of assay samples and lysates was measured by liquid scintillation counting. Total loading (cpm) was calculated as the sum of the assay sample and the lysate of each well. The amount of ^86Rb^+ efflux was expressed as a percentage of […] loaded. […] IC50 values were determined by nonlinear least-squares regression analyses (GraphPad, San Diego, Calif.).
(§2) The agonist activities of ligands on nAChRs were assessed by measuring agonist-stimulated ^86Rb^+ efflux from stably transfected cells.

Assay [2] concerns the target T2, rat α3β4 nAChRs (Rattus norvegicus, UniProt P04757+P12392).
T2 construct: expressed in transfected cells; the efflux text says only stably transfected cells
It is filed as cell-based. The conditions noted are these: for Agonist Activity α3β4: stimulation of 86Rb+ efflux. The method, then: as §1, §2

Assay [3] deals with T2, rat α3β4 nAChRs. The experiment in a line: Inhibition of nicotine-stimulated 86Rb+ efflux, cells expressing rat α3β4 nAChRs. It is filed as cell-based. The method, then: as §1
Assay [4] addresses T1, human α4β2 nAChRs. The experiment in a line: biochemical. It is filed as binding. Here is the method: (§3) Briefly, cultured cells at >80% confluence were removed from their flasks (80 cm^2) with a disposable cell scraper and placed in 10 ml of 50 mM Tris HCl buffer (pH 7.4, 4° C.). The cell suspension was centrifuged at 10,000×g for 5 min and the pellet was collected. For cells treated chronically with nicotinic agonists during culturing, the pellet was washed two more times by centrifugation in fresh buffer to remove residual drug. The cell pellet was then homogenized in 10 ml buffer with a polytron homogenizer (Model PT2100, 12 mm aggregate, 26,000 rpm, 20 seconds) and centrifuged at 36,000 g for 10 min at 4° C. The membrane pellet was resuspended in fresh buffer, and aliquots of the membrane preparation equivalent to 30 to 200 μg protein were used for binding assays. […] Bound and free ligands were separated by vacuum filtration through Whatman GF/C filters treated with 0.5% polyethylenimine. The filter-retained radioactivity was measured by liquid scintillation counting. Specific binding was defined as the difference between total binding and nonspecific binding. Data from saturation and competition binding assays were analyzed using Prism 4 (GraphPad Software, San Diego, Calif.).
(§4) All ligand binding assays were carried out using rat or human nAChRs heterologously expressed in human cells or in native rat brain tissues.

Another assay has as its target T3, rat α4β2 nAChRs (Rattus norvegicus, UniProt P09483+P12390).
T3 construct: expressed in transfected cells; host or cells: HEK cells (membrane homogenates)
The experiment in a line: [3H]epibatidine competition binding, rat α4β2 nAChRs expressed in HEK cells. Here is the method:
as §3, with “drug.” for “drug. The cell pellet was then homogenized in 10 ml buffer with a polytron homogenizer (Model PT2100, 12 mm aggregate, 26,000 rpm, 20 seconds) and centrifuged at 36,000 g for 10 min at 4° C. The membrane pellet was resuspended in fresh buffer, and aliquots of the membrane preparation equivalent to 30 to 200 μg protein were used for binding assays.”
as §4

The target of assay [5] is T2, rat α3β4 nAChRs. The experiment in a line: [3H]epibatidine competition binding, rat α3β4 nAChRs expressed in HEK cells. Here is the method:
as §3, §4

Assay [6] addresses T1, human α4β2 nAChRs. The experiment in a line: Inhibition of nicotine-stimulated 86Rb+ efflux, cells expressing human α4β2 nAChRs. It is filed as cell-based. The method, then: as §1
[7] abbreviates: added simultaneously with nicotine.

Molecules are shown by their SMILES. Like-named read-outs stand apart in the source and are kept apart here. Some results are limits rather than exact numbers.

By IC50 is commonly meant the concentration needed to halve the response being measured. Usually Ki stands for the dissociation constant of the complex between target and ligand, obtained from inhibition or displacement. On to `OCCCCC#Cc1cncc(OC[C@@H]2CCN2)c1` [Sazetidine-A, 6-(5-(((S)-azetidin-2-yl)methoxy)pyridin-3-yl)hex-5-yn-1-ol], for which the “EC50 for activation of channel function (86Rb+ efflux)” value is “could not be calculated” at human α4β2 nAChRs [1] (human α4β2 receptors, mean ± SEM, FIG. 2A) and “could not be calculated” on rat α3β4 nAChRs [2] (rat α3β4 receptors, mean ± SEM, FIG. 2B). For the same compound, the “Agonist Activity α4β2” value is recorded as “Not detected” on human α4β2 nAChRs [1] and “no agonist activity” at human α4β2 nAChRs [1] (listed as sazetidine-A). Also, the “Agonist Activity α3β4” value on rat α3β4 nAChRs [2] is “Not detected”; at rat α3β4 nAChRs [2] (listed as sazetidine-A) it was “no agonist activity”. Moreover, at rat α3β4 nAChRs [3] (10 min preincubation), the “blocking of α3β4 nAChRs” value is listed as “ineffective”. Further, the IC50 was over 10000 nM at rat α3β4 nAChRs [3] (Acute Antagonist Potency (IC50(A), nM) α3β4, applied simultaneously with nicotine); over 10000 nM at rat α3β4 nAChRs [3] (Desensitization Potency (IC50(D,10 min), nM) α3β4, 10 min pretreatment before nicotine); over 10000 nM at rat α3β4 nAChRs [3] (IC50 α3β4 nAChRs, 0 min Pretreatment, added simultaneously with 100 μM nicotine, mean ± SEM of 3 to 7 experiments); over 10000 nM on rat α3β4 nAChRs [3] (IC50 α3β4 nAChRs, 10 min Pretreatment, 10 min preincubation, then 100 μM nicotine, mean ± SEM of 3 to 7 experiments); at least 10000 nM against human α4β2 nAChRs [6] (Acute Antagonist Potency (IC50(A), nM) α4β2, applied simultaneously with nicotine); 26 nM at human α4β2 nAChRs [6] (Desensitization Potency (IC50(D,10 min), nM) α4β2, 10 min pretreatment before nicotine). In addition, the IC50 was over 10000 nM at human α4β2 nAChRs [6] (IC50 α4β2 nAChRs, 0 min Pretreatment, added simultaneously with 100 μM nicotine, mean ± SEM of 3 to 7 experiments) and about 30 nM at human α4β2 nAChRs [6] (IC50 α4β2 nAChRs, 10 min Pretreatment, 10 min preincubation, then 100 μM nicotine, mean ± SEM of 3 to 7 experiments). Also, the “acute antagonist activity, blockade of nicotine-stimulated 86Rb+ efflux, α3β4” value on rat α3β4 nAChRs [3] (setting [7]) is given as “no antagonist activity”. Besides, the Ki at human α4β2 nAChRs [4] amounted to 0.64 ± 0.32 nM; at rat α4β2 nAChRs it was 0.41 ± 0.16 nM; at rat α4β2 nAChRs (read-out: Equilibrium binding affinity (Ki, nM) α4β2, example tables, species not given) it was 0.41 nM; on rat α3β4 nAChRs [5], 10000 nM. In addition, on rat α4β2 nAChRs (ratio of Ki values), the “Selectivity (Ki ratio: rat α3β4/rat α4β2)” value is 24,000. The “concentration that nearly completely inhibited nicotine activation of α4β2 receptors” value at human α4β2 nAChRs [6] (10 min preincubation) is about 200 nM. In addition, the “acute antagonist activity, blockade of nicotine-stimulated 86Rb+ efflux, α4β2” value on human α4β2 nAChRs [6] (setting [7]) is “no antagonist activity”.
